Reference: US7824691B2 (priority 2005, dated 2010)
Ends that are not written are not given here.

How the values were obtained:
RAW264.7 cells [1] = assay: LTA-induced TNF-α production by RAW264.7 cells (ELISA); format: cell-based, murine; conditions: 20 μg/mL inactive RIP peptide analogue; data not shown
Protocol: (§1) Cytokine production by RAW 264.7 cells: The murine macrophage cell line RAW264.7 was obtained from American Type Culture Collection (ATCC) and maintained in RPMI supplemented with 10% fetal calf serum (FCS), 2 mM L-glutamine, 100 units/mL penicillin and 100 μg/mL streptomycin in a humidified 37° C. incubator. RAW264.7 cells were plated in 24-well dishes at 10^6 cells/well in the above medium and incubated at 37° C. in 5% CO2 overnight. RPMI was aspirated from cells grown overnight and replaced with fresh medium. […] Peptides were added simultaneously with LTA. After 24 hours incubation, the supernatants were removed and tested for TNF-α production by enzyme linked immunosorbent assay (ELISA; Euroclone Life Sciences, Milan, Italy) according to the manufacturer's specification. All samples were run in duplicate. The detection limit for TNF-α was <0.025 ng/mL.

RAW264.7 cells [2] = assay: LTA-stimulated NO production by RAW264.7 cells (Griess reagent); format: cell-based, murine; conditions: 20 μg/mL inactive RIP peptide analogue; data not shown
Protocol: as §1
Nitric oxide (NO) detection: RAW264.7 cells were cultured as described above. The amount of LTA-stimulated production of NO in the supernatant over 24 hours was estimated from the accumulation of the stable NO metabolite nitrite with Griess reagent (Molecular Probes, Eugene, Oreg.) according to the manufacturer's instructions.

S. aureus ATCC 25923 = assay: Murine sepsis model 1, live S. aureus i.v. challenge (lethality, bacteremia); format: in vivo, BALB/c male mice; conditions: for Lethality (%) / Lethality (dead/total): monitored 72 h; for Quantitative Blood Culture (CFU/ml), mean ± S.D. / Qualitative Blood Culture (positive/total): blood 24 h after challenge
Protocol: Animals: BALB/c male mice weighing 23 to 30 g were used for all the experiments. All animals were housed in individual cages under constant temperature (22° C.) and humidity with a 12 hour light/dark cycle and had access to food and water ad libitum throughout the study. The study was approved by the animal research ethics committee of the I.N.R.C.A.-I.R.R.C.S., Polytechnic University of Marche, Ancona, Italy.
Preparation of the inoculum: S. aureus ATCC 25923 were grown overnight at 37° C. in brain-heart infusion broth. When bacteria were in the log phase of growth the suspension was centrifuged at 1000× g for 15 min, the supernatant was discarded, and the bacteria were resuspended in sterile saline to achieve a concentration of approximately 1×10^7 CFU/mL.
(§2) Implantation of inoculum: All animals were anesthetized by an intramuscular injection of ketamine (30 mg/kg of body weight). Mice were injected intravenously (i.v.) via the tail vein with 0.2 mL of the above mentioned bacterial suspensions: (i) 2.0×10^6 CFU of S. aureus ATCC 25923 (model 1), or (ii) 5.0×10^8 heat-killed cells (model 2) on day 0 and monitored for 72 hours.
(§3) Antibiotic therapy. […] Each group included 20 mice. The animals were returned to individual cages and monitored for the subsequent 72 hours. The endpoints of the study were lethality rates (model 1), quantitative blood cultures (bacteremia, model 1), and TNF-α or IL-6 plasma levels (model 2).
Evaluation of treatment: Blood samples for culture were obtained from the tail vein by aseptic percutaneous puncture 24 h after bacterial challenge. The animals that died before this time were not tested. To perform quantitative bacterial cultures, blood samples were serially diluted, a 0.1 mL volume of each dilution was spread on blood agar plates and cultured at 35° C. for 48 h, and colony forming units (CFU) were counted. The limit of detection was <10 CFU/mL.
Statistical analysis: Lethality rates between groups were compared by use of Fisher's exact test. Data from quantitative blood cultures were presented as means±standard deviations (SDs) of the mean; statistical comparisons between groups were made by analysis of variance. Post hoc comparisons were performed by Bonferroni's test. Plasma IL-6 and TNF-α mean values were compared between groups by analysis of variance. Significance was accepted when the p value was <0.05.

[3] = Toxicity in supplementary treated groups without challenge; format: in vivo, BALB/c male mice; conditions: supplementary treated groups without previous infection
IL-6 plasma levels = assay: Murine sepsis model 2, heat-killed S. aureus challenge, plasma IL-6; format: in vivo, BALB/c male mice
Protocol: (§4) Heat-killed S. aureus were prepared by boiling for 10 min and sonicating a bacterial suspension for 1 min in phosphate buffered saline containing approximately 2.5×10^9 cells/mL.
as §2, §3
(§5) Plasma TNF-α and IL-6 levels. […] TNF-α levels were measured with a solid phase sandwich enzyme-linked immunosorbent assay (ELISA). The intensity of the color was measured in a MR 700 Microplate Reader (Dynatech Laboratories, Guernsey, United Kingdom) by reading the absorbance at 450 nm. […] The plasma concentrations of IL-6 were also determined by ELISA, as described above. Quantification was performed on the basis of a standard curve. […]

TNF-α plasma levels = assay: Murine sepsis model 2, heat-killed S. aureus challenge, plasma TNF-α; format: in vivo, BALB/c male mice
Protocol: as §4, §2, §3, §5

[4] = model 1a: i.v. treatment immediately after challenge
[5] = model 1a: treatment immediately after challenge
[6] = model 1b: i.v. treatment 6 h (360 min) after challenge
[7] = model 1b: treatment 6 h after challenge

Row | Compound | Lethality (%) (S. aureus ATCC 25923; [4]) | Quantitative Blood Culture (CFU/ml), mean ± S.D. (S. aureus ATCC 25923; [5]) | Lethality (%) (S. aureus ATCC 25923; [6]) | Quantitative Blood Culture (CFU/ml), mean ± S.D. (S. aureus ATCC 25923; [7]) | changes in physiological parameters [3] | drug-related adverse effects [3] | further results
1 | YKPETNF-NH2 [inactive RIP peptide analogue] |  |  |  |  |  |  | decrease of LTA-induced TNF-α (RAW264.7 cells [1]): did not demonstrate decrease; decrease of LTA-stimulated NO (RAW264.7 cells [2]): did not demonstrate decrease
2 | C[C@@H](O)[C@H]1C(=O)N2C(C(=O)O)=C(SCCN=CN)C[C@H]12 [imipenem] | 30 | 5.8 ± 1.4 × 10^2de CFU/ml | 35 | 7.1 ± 1.7 × 10^2de CFU/ml |  |  | 
3 | GGLRSLGRKILRAWKKYGPIIVPIIRI-NH2 [BMAP-28] |  |  |  |  | no changes in physiological parameters | none of the animals had clinical evidence of drug-related adverse effects | 
4 | CN[C@H](CC(C)C)C(=O)N[C@H]1C(=O)N[C@@H](CC(N)=O)C(=O)N[C@H]2C(=O)N[C@H]3C(=O)N[C@H](C(=O)N[C@H](C(=O)O)c4cc(O)cc(O)c4-c4cc3ccc4O)[C@H](O)c3ccc(c(Cl)c3)Oc3cc2cc(c3O[C@@H]2O[C@H](CO)[C@@H](O)[C@H](O)[C@H]2O[C@H]2C[C@](C)(N)[C@H](O)[C@H](C)O2)Oc2ccc(cc2Cl)[C@H]1O [vancomycin] | 20 | 7.8±1.8×10^1 CFU/ml | 20 | 9.0 ± 2.8 × 10^1deg CFU/ml |  |  | IL-6 plasma levels (IL-6 plasma levels; model 2a: drugs at 0 min after heat-killed cell challenge, FIG. 4A): No substantial differences; plasma IL-6 concentrations (IL-6 plasma levels; model 2b: drugs 360 min after heat-killed bacterial challenge, FIG. 4B): constant increase; Lethality (dead/total) (S. aureus ATCC 25923; [4]): 4/20; Qualitative Blood Culture (positive/total) (S. aureus ATCC 25923; [5]): 5/20^df; Quantitative Blood Culture (CFU/ml), mean ± S.D. (S. aureus ATCC 25923; model 1a: treatment immediately after challenge, listed as VAN): 7.8 ± 1.8 × 10^1deg CFU/ml; Lethality (dead/total) (S. aureus ATCC 25923; [6]): 4/20; Qualitative Blood Culture (positive/total) (S. aureus ATCC 25923; [7]): 5/20^df; TNF-α plasma levels (TNF-α plasma levels; model 2a: drugs at 0 min after heat-killed cell challenge, FIG. 3A): No substantial differences; plasma TNF-α concentrations (TNF-α plasma levels; model 2b: drugs 360 min after heat-killed bacterial challenge, FIG. 3B): constant increase
5 | YSPWTNF-NH2 [RIP, YSPWTNF-NH2] |  |  |  |  | no changes in physiological parameters | none of the animals had clinical evidence of drug-related adverse effects | 
